The text below walks through data of PMC11284788, “NN1213 – A Potent, Long-Acting, and Selective Analog of Human Amylin” (Journal of Medicinal Chemistry, 2024).

One data set relates to rats. Particulars: cited from earlier work. An excerpt:
SEM is the standard error of the mean. || From the daily consumption of food observed in the DIO rats, the steep decrease around day 2 is a typical pattern observed with appetite-reducing agents in rodents.[31]

Data set [1] relates to cAMY3R. Description: Whole-cell competition binding, cAMY3R. Conditions: IC50 for the CTR divided by that of the AMYR, canine receptors.
Data set [2] relates to cAMY1R. The data set can be described thus: Species-specific cAMP assay, cAMY1R. (Changes in cAMP serve as a functional read-out for many G protein-coupled receptors.)
For another data set, the system named is cCTR. The data set can be described thus: Species-specific cAMP assay, cCTR. Conditions: cAMP HTRF, transiently transfected BHK cells, 30 min room temperature, five experiments.
The conditions of data set [3]: cited from earlier work. The source says:
The major chemical degradation products of pramlintide have been identified to include deamidation and isomerization of asparagine residues in positions 3, 21, and 22 and to a lesser degree in positions 14 and 35.[22] Reduction of these deamidation reactions in pramlintide has been obtained by acidic formulation.[23]

Data set [4] deals with cAMY3R. The data set can be described thus: Species-specific cAMP assay, cAMY3R.
The next data set addresses T1, mAMY3R (Mus musculus, UniProt Q60755+Q9WUP1).
T1 sequence (Q60755 42-496 isoform Q60755-2 limits assumed): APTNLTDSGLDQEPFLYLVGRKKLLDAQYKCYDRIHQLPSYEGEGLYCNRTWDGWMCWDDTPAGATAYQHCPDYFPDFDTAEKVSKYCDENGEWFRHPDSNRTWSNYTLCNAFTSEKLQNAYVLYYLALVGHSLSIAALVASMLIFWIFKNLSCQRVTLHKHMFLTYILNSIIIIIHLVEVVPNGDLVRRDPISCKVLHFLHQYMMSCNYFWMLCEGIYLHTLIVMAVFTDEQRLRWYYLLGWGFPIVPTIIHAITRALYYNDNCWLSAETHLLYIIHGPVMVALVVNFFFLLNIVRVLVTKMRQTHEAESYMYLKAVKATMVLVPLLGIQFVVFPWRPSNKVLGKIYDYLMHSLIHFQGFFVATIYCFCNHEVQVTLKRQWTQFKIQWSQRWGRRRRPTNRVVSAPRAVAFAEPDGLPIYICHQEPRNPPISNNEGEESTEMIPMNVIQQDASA
T1 sequence (Q9WUP1 24-147 partner limits assumed): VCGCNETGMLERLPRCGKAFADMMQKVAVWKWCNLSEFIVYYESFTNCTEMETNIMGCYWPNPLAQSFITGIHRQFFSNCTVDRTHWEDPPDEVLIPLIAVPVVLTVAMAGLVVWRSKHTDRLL
Description: Mouse receptor cAMP HTRF assay (BacMam, HeLa), mAMY3R. Conditions: ratio of cAMP EC50 values, mouse receptors.

Another data set concerns the target T2, mCTR (Mus musculus, UniProt Q60755).
T2 sequence (Q60755 42-496 isoform Q60755-2 limits assumed): T1 sequence (Q60755 42-496 isoform Q60755-2 limits assumed)
The data set can be described thus: Mouse receptor cAMP HTRF assay (BacMam, HeLa), mCTR. In general terms: Time-resolved FRET reads energy transfer from a long-lived donor to a nearby acceptor.

Data set [5] concerns cAMY1R. Description: Whole-cell competition binding, cAMY1R. Conditions: IC50 for the CTR divided by that of the AMYR, canine receptors.
[6] abbreviates: single sc injection of 30 nmol/kg, published previously.
The mark [7] stands for this setting: cAMP HTRF, transiently transfected BHK cells, 30 min room temperature, five experiments.
The mark [8] stands for this setting: ratio of cAMP EC50 values, canine receptors.

Description for mAMY3R: (§1) Mouse Receptors (Functional Assay Only). Cell culture: HeLa cells were cultured in an incubator at 37 °C and 5% CO2, in cell culture medium (DMEM with 10% [v/v] FBS, 1% [w/w] penicillin/streptomycin).
(§2) Cell seeding in T75 flasks (day 1): The day before transfection of the cells, 2 x 10^6 HeLa cells were seeded in three T75 flasks and incubated overnight. Media was removed from 1–2 T175 flasks and cells were washed once with Dulbecco PBS (with Mg2+ and Ca2+). Cells were detached with 2 mL TrypLE Express for 5 min in an incubator. Five mL pre-warmed media was added to each T75 flask and mixed with the cell suspension. Cells were counted in 100 µL of this suspension. The cell suspension was centrifuged at 1200 rpm for 4 min and the supernatant was discarded. The cells were re-suspended in media and 2 x 10^6 cells were seeded in approximately 15 mL in each of the three T75 flasks. The flasks were incubated overnight.
(§3) with 20 µL poly-d-lysin/well for 2–3 h at 37 °C. The plates were washed twice with PBS and allowed
(§4) Transfection of cells (day 2): Reagents were acclimated to room temperature for 30 min. Media was
(§5) removed from the T75 flasks, and cells were washed once with PBS (with Mg2+ and Ca2+). Cells were
(§6) Seeding of transfected cells in assay plates (day 2): Following the 3-h transduction, T75 flasks were
(§7) washed once with PBS (with Mg2+ and Ca2+). […]
mL pre-warmed media and counted.
Description for mCTR: as §1, §2, §3, §4, §5, §6, §7
mL pre-warmed media and counted.

`CC[C@H](C)[C@H](NC(=O)[C@@H]1CCCN1C(=O)CNC(=O)[C@H](Cc1ccccc1)NC(=O)[C@H](CC(N)=O)NC(=O)[C@H](CC(N)=O)NC(=O)[C@H](CO)NC(=O)[C@H](CO)NC(=O)[C@H](Cc1c[nH]cn1)NC(=O)[C@H](CCCNC(=N)N)NC(=O)[C@H](CC(C)C)NC(=O)[C@H](Cc1ccccc1)NC(=O)[C@H](CCC(=O)O)NC(=O)[C@H](C)NC(=O)[C@H](CC(C)C)NC(=O)[C@H](CCCNC(=N)N)NC(=O)[C@H](CCC(N)=O)NC(=O)[C@@H](NC(=O)[C@H](C)NC(=O)[C@@H]1CSSC[C@H](NC(=O)[C@H](CCCCN)NC(=O)CC[C@H](NC(=O)CCCCCCCCCCCCCCCCCCC(=O)O)C(=O)O)C(=O)N[C@@H](CC(N)=O)C(=O)N[C@@H]([C@@H](C)O)C(=O)N[C@@H](C)C(=O)N[C@@H]([C@@H](C)O)C(=O)N1)[C@@H](C)O)C(=O)N[C@@H](CC(C)C)C(=O)N1CCC[C@H]1C(=O)N1CCC[C@H]1C(=O)N[C@H](C(=O)N[C@@H](CC(N)=O)C(=O)N[C@H](C(=O)NCC(=O)N[C@@H](CO)C(=O)N[C@@H](CC(N)=O)C(=O)N[C@H](C(=O)N1CCC[C@H]1C(N)=O)[C@@H](C)O)C(C)C)[C@@H](C)O` [cagrilintide]: the “reduction in food intake in rats” value with rats was 45%. For the same compound, in the data set on rats (setting [6]), the “reduction of food intake 0−24 h” value was 85% and the “reduction of food intake 24–48 h” value is 84%.

What is called EC50 is the concentration at which the effect is half-maximal. High values mean weaker potency, low ones greater potency. In the case of `CC[C@H](C)[C@H](NC(=O)[C@@H]1CCCN1C(=O)CNC(=O)[C@H](Cc1ccccc1)NC(=O)[C@H](CC(N)=O)NC(=O)[C@H](CC(N)=O)NC(=O)[C@H](CO)NC(=O)[C@H](CO)NC(=O)[C@H](Cc1c[nH]cn1)NC(=O)[C@@H](NC(=O)[C@H](CC(C)C)NC(=O)[C@H](Cc1ccccc1)NC(=O)[C@H](CC(N)=O)NC(=O)[C@H](C)NC(=O)[C@H](CC(C)C)NC(=O)[C@H](CCCNC(=N)N)NC(=O)[C@H](CCC(N)=O)NC(=O)[C@@H](NC(=O)[C@H](C)NC(=O)[C@@H]1CSSC[C@H](NC(=O)[C@@H](N)CCCCN)C(=O)N[C@@H](CC(N)=O)C(=O)N[C@@H]([C@@H](C)O)C(=O)N[C@@H](C)C(=O)N[C@@H]([C@@H](C)O)C(=O)N1)[C@@H](C)O)C(C)C)C(=O)N[C@@H](CC(C)C)C(=O)N1CCC[C@H]1C(=O)N1CCC[C@H]1C(=O)N[C@H](C(=O)N[C@@H](CC(N)=O)C(=O)N[C@H](C(=O)NCC(=O)N[C@@H](CO)C(=O)N[C@@H](CC(N)=O)C(=O)N[C@H](C(=O)N[C@@H](Cc1ccc(O)cc1)C(N)=O)[C@@H](C)O)C(C)C)[C@@H](C)O` [pramlintide, reference compound], the “Ratio CTR/AMY3R (canine, binding)” value with cAMY3R [1] amounted to 112. Moreover, the “cAMY1R pEC50” value in the data set on cAMY1R [2] (setting [7]) is reported as 10.77. In addition, the “Ratio CTR/AMY1R (canine, functional)” value in the data set with cAMY1R [2] (setting [8]) was determined as 1. Moreover, the “cCTR pEC50” value in the data set with cCTR was 10.90. Moreover, the half-life in plasma in data set [3] is 30 to 50 min. In addition, the “cAMY3R pEC50” value with cAMY3R [4] (setting [7]) amounted to 10.88. For the same compound, the “Ratio CTR/AMY3R (canine, functional)” value with cAMY3R [4] (setting [8]) turned out to be 1. The “Ratio CTR/AMY3R (mouse, functional)” value at mAMY3R came out at 8. On mCTR, this compound showed an EC50 of 3.09 nM. Further, the “Ratio CTR/AMY1R (canine, binding)” value in the data set with cAMY1R [5] is given as 67.
